These results are taken from PubChem BioAssay AID1259407 (Chemical Carcinogenesis Research Information System (CCRIS), 2018).

For this data set, the system named is CCRIS mutagenicity, Ames/micronucleus/aberration tests. As to the kind of experiment: CCRIS mutagenicity studies.
Setting [1] is: Test System: AMES SALMONELLA TYPHIMURIUM, Strain/Indicator: TA98, Metabolic Activation: NONE, Method: PREINCUBATION
The mark [2] stands for this setting: Test System: AMES SALMONELLA TYPHIMURIUM, Strain/Indicator: TA100, Metabolic Activation: NONE, Method: PREINCUBATION
The mark [3] stands for this setting: Test System: AMES SALMONELLA TYPHIMURIUM, Strain/Indicator: TA1535, Metabolic Activation: NONE, Method: PREINCUBATION
[4] abbreviates: Test System: AMES SALMONELLA TYPHIMURIUM, Strain/Indicator: TA1537, Metabolic Activation: NONE, Method: PREINCUBATION

Calls of active or inactive are those of the source. How the calls were made is not given here.

Take `COc1ccc2c(c1)c(CC(=O)O)c(C)n2C(=O)c1ccc(Cl)cc1`: the mutagenic call is “inactive; negative” (Test System: AMES SALMONELLA TYPHIMURIUM, Strain/Indicator: TA98, Metabolic Activation: GUINEA PIG, LIVER, S-9, PCB, Method: PREINCUBATION); “inactive; negative” (Test System: AMES SALMONELLA TYPHIMURIUM, Strain/Indicator: TA98, Metabolic Activation: HAMSTER, LIVER, S-9, PCB, Method: PREINCUBATION); “inactive; negative” (Test System: AMES SALMONELLA TYPHIMURIUM, Strain/Indicator: TA98, Metabolic Activation: MOUSE, LIVER, S-9, PCB, Method: PREINCUBATION); “inactive; negative” under setting [1]; “inactive; negative” (Test System: AMES SALMONELLA TYPHIMURIUM, Strain/Indicator: TA98, Metabolic Activation: RAT, LIVER, S-9, PCB, Method: PREINCUBATION); “inactive; negative” (Test System: AMES SALMONELLA TYPHIMURIUM, Strain/Indicator: TA98, Metabolic Activation: RAT, LIVER, S-9, PCB, Method: STANDARD PLATE). The mutagenic call reads like this: (Test System: AMES SALMONELLA TYPHIMURIUM, Strain/Indicator: TA100, Metabolic Activation: GUINEA PIG, LIVER, S-9, PCB, Method: PREINCUBATION) “inactive; negative”; (Test System: AMES SALMONELLA TYPHIMURIUM, Strain/Indicator: TA100, Metabolic Activation: HAMSTER, LIVER, S-9, PCB, Method: PREINCUBATION) “inactive; negative”; (Test System: AMES SALMONELLA TYPHIMURIUM, Strain/Indicator: TA100, Metabolic Activation: MOUSE, LIVER, S-9, PCB, Method: PREINCUBATION) “inactive; negative”; under setting [2], “inactive; negative”; (Test System: AMES SALMONELLA TYPHIMURIUM, Strain/Indicator: TA100, Metabolic Activation: RAT, LIVER, S-9, PCB, Method: PREINCUBATION) “active; positive”; (Test System: AMES SALMONELLA TYPHIMURIUM, Strain/Indicator: TA100, Metabolic Activation: RAT, LIVER, S-9, PCB, Method: STANDARD PLATE) “inactive; negative”. Also, the mutagenic call by setting is: (Test System: AMES SALMONELLA TYPHIMURIUM, Strain/Indicator: TA1537, Metabolic Activation: RAT, LIVER, S-9, PCB, Method: STANDARD PLATE) “inactive; negative”; (Test System: AMES SALMONELLA TYPHIMURIUM, Strain/Indicator: TA1538, Metabolic Activation: RAT, LIVER, S-9, PCB, Method: STANDARD PLATE) “inactive; negative”; (Test System: E. COLI, Strain/Indicator: WP2 UVRA, Metabolic Activation: RAT, LIVER, S-9, PCB, Method: STANDARD PLATE) “inactive; negative”.
Regarding `Oc1ccc(Cc2ccccc2O)cc1`, the mutagenic call is, setting by setting: under setting [1], “inactive; negative”; (Test System: AMES SALMONELLA TYPHIMURIUM, Strain/Indicator: TA98, Metabolic Activation: RAT LIVER S-9, PHENOBARBITAL AND BETA-NAPHTHOFLAVONE, Method: PREINCUBATION) “inactive; negative”; under setting [2], “inactive; negative”; (Test System: AMES SALMONELLA TYPHIMURIUM, Strain/Indicator: TA100, Metabolic Activation: RAT LIVER S-9, PHENOBARBITAL AND BETA-NAPHTHOFLAVONE, Method: PREINCUBATION) “inactive; negative”; under setting [3], “inactive; negative”; (Test System: AMES SALMONELLA TYPHIMURIUM, Strain/Indicator: TA1535, Metabolic Activation: RAT LIVER S-9, PHENOBARBITAL AND BETA-NAPHTHOFLAVONE, Method: PREINCUBATION) “inactive; negative”. Besides, the mutagenic call under setting [4] was “inactive; negative”; the mutagenic call (Test System: AMES SALMONELLA TYPHIMURIUM, Strain/Indicator: TA1537, Metabolic Activation: RAT LIVER S-9, PHENOBARBITAL AND BETA-NAPHTHOFLAVONE, Method: PREINCUBATION) is “inactive; negative”; the mutagenic call (Test System: E.COLI, Strain/Indicator: WP2UVRA/PKM101, Metabolic Activation: NONE, Method: PREINCUBATION) was “inactive; negative”; the mutagenic call (Test System: E.COLI, Strain/Indicator: WP2UVRA/PKM101, Metabolic Activation: RAT LIVER S-9, PHENOBARBITAL AND BETA-NAPHTHOFLAVONE, Method: PREINCUBATION) is “inactive; negative”.
`CNc1ccc(N=Nc2ccc(NC)cc2)cc1`: the mutagenic call reads like this: (Test System: AMES SALMONELLA TYPHIMURIUM, Strain/Indicator: TA98, Metabolic Activation: RAT, LIVER, S-9, POLYCHLORINATED BIPHENYLS, Method: PREINCUBATION) “inactive; negative”; (Test System: AMES SALMONELLA TYPHIMURIUM, Strain/Indicator: TA100, Metabolic Activation: RAT, LIVER, S-9, POLYCHLORINATED BIPHENYLS, Method: PREINCUBATION) “inactive; negative”.
With `CN(C)C`, the mutagenic call by setting is: (Test System: AMES SALMONELLA TYPHIMURIUM, Strain/Indicator: TA98, Metabolic Activation: HAMSTER, LIVER, S-9, AROCLOR 1254 (10%), Method: PREINCUBATION) “inactive; negative”; under setting [1], “inactive; negative”; (Test System: AMES SALMONELLA TYPHIMURIUM, Strain/Indicator: TA98, Metabolic Activation: RAT, LIVER, S-9, AROCLOR 1254 (10%), Method: PREINCUBATION) “inactive; negative”; (Test System: AMES SALMONELLA TYPHIMURIUM, Strain/Indicator: TA100, Metabolic Activation: HAMSTER, LIVER, S-9, AROCLOR 1254 (10%), Method: PREINCUBATION) “inactive; negative”; under setting [2], “inactive; negative”; (Test System: AMES SALMONELLA TYPHIMURIUM, Strain/Indicator: TA100, Metabolic Activation: RAT, LIVER, S-9, AROCLOR 1254 (10%), Method: PREINCUBATION) “inactive; negative”. The mutagenic call (Test System: AMES SALMONELLA TYPHIMURIUM, Strain/Indicator: TA1535, Metabolic Activation: HAMSTER, LIVER, S-9, AROCLOR 1254 (10%), Method: PREINCUBATION) is “inactive; negative”; the mutagenic call under setting [3] was “inactive; negative”; the mutagenic call (Test System: AMES SALMONELLA TYPHIMURIUM, Strain/Indicator: TA1535, Metabolic Activation: RAT, LIVER, S-9, AROCLOR 1254 (10%), Method: PREINCUBATION) is “inactive; negative”; the mutagenic call (Test System: AMES SALMONELLA TYPHIMURIUM, Strain/Indicator: TA1537, Metabolic Activation: HAMSTER, LIVER, S-9, AROCLOR 1254 (10%), Method: PREINCUBATION) was “inactive; negative”; the mutagenic call under setting [4] is “inactive; negative”; the mutagenic call (Test System: AMES SALMONELLA TYPHIMURIUM, Strain/Indicator: TA1537, Metabolic Activation: RAT, LIVER, S-9, AROCLOR 1254 (10%), Method: PREINCUBATION) is “inactive; negative”.
With `O=C1c2c(O)ccc(O)c2C(=O)c2c(NCCO)ccc(NCCO)c21`, the mutagenic call (Test System: MOUSE LYMPHOMA, Strain/Indicator: L5178Y (TK+/TK-), Metabolic Activation: NONE, Method: SUSPENSION/PLATE) was “active; positive”.
In the case of `O=C(O)c1cccnc1Nc1cccc(C(F)(F)F)c1`, where the note is “Test System: AMES SALMONELLA TYPHIMURIUM, Strain/Indicator: TA1535, Metabolic Activation: NONE, Method: STANDARD PLATE”, the mutagenic call was “inactive; negative”.
With `CC(=O)OCCO`, the mutagenic call was “inactive; negative” (Test System: AMES SALMONELLA TYPHIMURIUM, Strain/Indicator: TA98, Metabolic Activation: NONE, Method: STANDARD PLATE); “inactive; negative” (Test System: AMES SALMONELLA TYPHIMURIUM, Strain/Indicator: TA98, Metabolic Activation: RAT, LIVER, MICROSOMES, Method: STANDARD PLATE); “inactive; negative” (Test System: AMES SALMONELLA TYPHIMURIUM, Strain/Indicator: TA100, Metabolic Activation: NONE, Method: STANDARD PLATE); “inactive; negative” (Test System: AMES SALMONELLA TYPHIMURIUM, Strain/Indicator: TA100, Metabolic Activation: RAT, LIVER, MICROSOMES, Method: STANDARD PLATE).
Consider `O=C(Nc1nc(-c2ccc([N+](=O)[O-])o2)cs1)C(F)(F)F`, for which the mutagenic call (Test System: AMES SALMONELLA TYPHIMURIUM, Strain/Indicator: TA100, Metabolic Activation: RAT, LIVER, S-9, KC500 OR PHENOBARBITAL, Method: LIQUID SUSPENSION) was “active; positive” and the mutagenic call (Test System: E. COLI WP2, Strain/Indicator: WP2, Metabolic Activation: NONE, Method: SPOT) is “active; positive”.
